Test results from PMC11809919, “Quinoxaline-based anti-schistosomal compounds have potent anti-plasmodial activity” (PLOS Pathogens, 2025).
Several values for one entry are separate records, joined by “and”; a condition that tells them apart may be missing. Equal entries are not always repeated. Where two headings read alike, the source gives them in different places.

Columns and labels:
[1] = tested on: P. falciparum PfQRP1 mutants (G1612V, D1863Y, D1829*, D1829A); experiment: Dose-response assay on CRISPR-edited PfQRP1 mutant lines; format: cell-based, Plasmodium falciparum; details: for Susceptibility in CRISPR-edited G1612V and D1863Y PfQRP1 lines: versus silent-mutation and wildtype controls
Experimental: To generate the PfQRP1 hydrolase mutants (D1829stop and D1829A), the pDC2-Cas9-gRNA-donor plasmid was transfected into the P. falciparum Dd2 line. Donor plasmid (50 µg) containing the sgRNA ([…]) and a pfqrp1 homology region of 672 bp, centred on the D1829 residue, was used for transfection. Transfectants were selected using 5 nM WR99210 (a potent inhibitor of P. falciparum dihydrofolate reductase (DHFR) provided by Jacobus Pharmaceuticals) for 8 days, followed by culturing without drug until parasites were observed. Parasite clones were obtained using limiting dilution cloning. Confirmation of gene editing was performed with allele-specific PCR (forward primer […] and reverse primer […]) and Sanger sequencing using an internal primer ([…]).
(§1) Compound dose-response assays were performed in flat-bottom 96-well plates. Tightly synchronized ring-stage parasites were diluted to 1% parasitemia at 2% hematocrit, and incubated with a two-fold serial dilution of compounds in complete medium. Untreated parasites or uninfected RBCs were included in the assay plate as controls. Parasite growth was assessed after 72 h by lysing parasites using 2× lysis buffer consisting of 10 mM Tris-HCl, 5 mM EDTA, 0.1% w/v saponin, and 1% v/v Triton X-100, supplemented with 2× SYBR Green I (Molecular Probes). The fluorescence was measured using a FluorStar Omega v5.11 plate reader. IC50 analysis was performed using GraphPad Prism v9, and statistical significance was determined by a two-sided Mann-Whitney U test. All assays were performed in technical duplicate with at least three biological replicates, as noted in the figure legends.

β-hematin formation = experiment: Detergent-based β-hematin inhibition assay; format: biochemical; details: cell-free, NP40 detergent, pH 4.8; read-out: βH Inhibition IC50, individual biological replicate
Experimental: From this stock 40 μL of each was delivered to wells in the final column (column 12) of a 96-well plate together with distilled water (120 μL) and NP40 detergent (305.5 mM, 40 μL). […] A serial dilution of each compound (100 μL) from column 12 to column 2 was carried out. Column 1 served as a blank with 0 mM sample. A 25 mM hematin stock solution was prepared by sonicating hemin in DMSO for one minute and then suspending 179 μL of this in a 1 M acetate buffer (20 mL, pH 4.8). […] The plate was covered and incubated at 37°C for 5 h. […] Acetone (60 μL) was then added to assist with hematin dispersion. The UV-vis absorbance of the plate wells was read on a SpectraMax […] plate reader.

[2] = tested on: 3D7 parasites (hemoglobin, 'free' heme, hemozoin); experiment: Cellular heme fractionation assay; format: cell-based, Plasmodium falciparum; details: 3D7, 0.5 – 2.5× IC50, 30 h
Description: Cellular heme fractionation to measure the amounts of different heme species was thereafter conducted as previously described. […] Pellets were then resuspended in 1× PBS (pH 7.5) and an aliquot of the trophozoite suspension used to quantify the total number of trophozoites isolated using flow cytometry. Contents of the remaining trophozoite pellet were then released by hypotonic lysis and sonication. […] The UV−visible spectrum of each heme fraction as an Fe(III)heme−pyridine complex was measured using a multi-well plate reader (Spectramax 340PC; Molecular Devices). The total amount of each heme species was quantified using a heme standard curve whereby the mass of each heme-Fe species per trophozoite (fg/cell) was calculated by dividing the total amount of each heme species by the corresponding number of parasites in that fraction as determined by flow cytometry. Statistical comparisons and analyses for trends were made on GraphPad Prism version 10 using Students’ t-test with Welch correction. The total amount of heme obtained from each fraction was quantified using a standard curve prepared from a 100 μg/mL heme standard solution of hematin (porcine) in 0.3 M NaOH. Serial dilutions of this standard were carried out in a 96-well plate with 100 μL 0.3 M NaOH as a blank. […] The visible spectra of heme as Fe(III)heme-pyridine complex were recorded in a multi-well plate reader. The amount of heme Fe per cell was calculated by dividing the total heme Fe in each fraction by the number of cells determined in each fraction.

[3] = tested on: P. berghei liver stage parasites; parameters: method as in PMID 22096101; details: cited from earlier work
S. mansoni adult worms = tested on: S. mansoni adult worms; parameters: method as in PMID 24416463; details: 400 compounds of the Malaria Box; cited from earlier work
P. falciparum 3D7 = experiment: Compound dose-response assay (72 h, SYBR Green I), 3D7; format: cell-based, Plasmodium falciparum; details: for IC50: 72 h, asexual blood stage; for Selectivity index HepG2/3D7: HepG2 72 h CC50 / Pf 3D7 IC50
Experimental: (§2) P. falciparum parasites were cultured at 3% hematocrit in RPMI 1640 (Gibco) medium consisting of 0.5% Albumax II (Gibco), 25 mM HEPES (Sigma), 0.21% sodium bicarbonate, 1x GlutaMAX (Gibco), 25 μg/mL gentamicin (Gibco). A tri-gas mixture (1% O2, 3% CO2, and 96% N2) was used for parasite cultures. Parasites were synchronized using a sorbitol and Percoll density gradient method. The following parasite strains were used: 3D7, Dd2 (MR4, MRA-156, T. Wellems), GB4 (MR4, MRA-925, T. Wellems), UG659 (P. Rosenthal), Tanzania (MR4, MRA-1169, Michal Fried), Cam/PH0212C (R. Fairhurst), and Cam3.II/ PH0306-C (R. Fairhurst). Transfection was performed using ring-stage parasites (5–8% parasitemia) using a Gene Pulser Xcell (Biorad) electroporator.
as §1

P. falciparum Dd2 [4] = experiment: Compound dose-response assay (72 h, SYBR Green I), Dd2; format: cell-based, Plasmodium falciparum; details: for IC50: 72 h, asexual blood stage; for Selectivity index HepG2/Dd2: HepG2 72 h CC50 / Pf Dd2 IC50
Experimental: as §2, §1

[5] = tested on: P. falciparum strains Cam/PH0212C, Cam3.II/PH0306-C, UG659, GB4, Tanzania; experiment: Dose-response assay against panel of geographically distinct strains; format: cell-based, Plasmodium falciparum; details: Cambodian isolates
Experimental: as §2, §1

[6] = tested on: Dd2-Polδ clones C22-1.1 and C22-2.1; experiment: Dose-response assay on compound 22-selected clones (cross-resistance); format: cell-based, Plasmodium falciparum
Experimental: Resistance selections were performed using a mutator parasite line Dd2-Polδ with an elevated mutation rate. Three independent flasks with either 1×10^8 or 1×10^9 parasites each were treated with 5×IC50, and parasite death was monitored by microscopy (Giemsa staining). […] After eight days, compounds were removed from the media and the media was changed on alternate days. […] For recrudescent cultures, compound susceptibility was determined by dose-response assays. Parasite clones were obtained by limiting dilution and harvested for genomic DNA extraction, followed by whole-genome sequencing.
as §1

[7] = tested on: P. falciparum ring, trophozoite and schizont stages; experiment: Stage specificity assay; format: cell-based, Plasmodium falciparum; details: for Stage-specificity: 10 h pulse at ring, trophozoite or schizont stage
Experimental: Stage-specific drug assays were performed following a protocol modified from Murithi et al.. In this assay, parasites were tightly synchronized to the ring stage with repeated 5% sorbitol treatments. On the assay day, schizonts were purified using a 63% Percoll gradient and allowed to […]. […] Parasites were then plated in 96-well plates and exposed to different drug concentrations at various stages: […] Drug treatment was removed through three rounds of washes. Plates were lysed 62 h after drug washout, and parasite growth was assessed similarly to the standard 72 h assay that used constant drug exposure.

P. falciparum Dd2 [8] = experiment: Rate of killing (CFDA-SE labelled RBC reinvasion); format: cell-based, Plasmodium falciparum; details: Dd2, 10×IC50, 24 h or 48 h
Experimental: The rate of killing was evaluated as previously described in Linares et al.. […] After treatment, the compound was removed, and the culture was diluted (1/3) using fresh RBCs (2% haematocrit) pre-labelled with CFDA-SE (carboxylfluorescein diacetate succinimidyl ester, Life Technologies). Following a 48 h incubation under standard conditions, the ability of treated parasites to infect fresh labelled RBCs was measured using a Cytoflex flow cytometer by quantifying double-positive RBCs after labelling the parasites with MitoTracker Deep Red. Parasite viability was determined as the percentage of infected CFDA-SE-labelled RBCs in drug-treated samples at 24 and 48 h, compared to equivalent untreated controls. Standard compounds dihydroartemisinin, chloroquine, and atovaquone were used as benchmarks for comparing the killing rate of the test compounds.

S. mansoni schistosomula = tested on: S. mansoni schistosomula; parameters: method as in Padalino et al. [13]; details: ref Padalino et al. [13], cited from earlier work
HepG2 cells = tested on: HepG2 cells; parameters: method as in Padalino et al. [13]; details: ref Padalino et al. [13], cited from earlier work
[9] = Plasmodium falciparum, 3D7, 72 h
[10] = Plasmodium falciparum, DD2, 72 h
[11] = 72 h, read-out: 72 h -phenotype EC50
[12] = average of phenotype and motility, read-out: Average EC50
[13] = HepG2, 24 h, read-out: 24 h CC50
[14] = HepG2, 72 h, read-out: 72 h CC50

| Structure (SMILES) | Effect of D1829 stop / D1829A PfQRP1 mutation on IC50 [1] | Activity against S. mansoni adult worms (S. mansoni adult worms) | Selectivity index HepG2/3D7 (P. falciparum 3D7) | IC50 (P. falciparum 3D7; [9]) | Selectivity index HepG2/Dd2 (P. falciparum Dd2 [4]) | IC50 (P. falciparum Dd2 [4]; [10]) | Potency against panel of geographically distinct strains [5] | Shift in IC50 in compound 22-selected clones versus parental Dd2-Polδ [6] | Increase in IC50 in D1829A / D1829 stop PfQRP1 mutants [1] | Susceptibility in CRISPR-edited G1612V and D1863Y PfQRP1 lines [1] | Drop in potency for a 10 h pulse compared with continuous exposure for 72 h [7] | Stage-specificity [7] | Rate of parasite killing (P. falciparum Dd2 [8]) | EC50 (S. mansoni schistosomula; [11]) | EC50 (S. mansoni schistosomula; [12]) | EC50 (S. mansoni schistosomula; read-out: Motility EC50) | CC50 (HepG2 cells; [13]) | CC50 (HepG2 cells; [14]) | other results |
| --- | --- | --- | --- | --- | --- | --- | --- | --- | --- | --- | --- | --- | --- | --- | --- | --- | --- | --- | --- |
| Brc1ccc(Nc2nc3ccccc3nc2Nc2ccc(Br)cc2)cc1 [MMV007224, 2-N,3-N-bis(4-bromophenyl)quinoxaline-2,3-diamine] | less potent | among the most active hits | – | – | – | – | – | – | – | – | – | – | – | – | – | – | – | – | IC50 (β-hematin formation): 146000 nM and 198000 nM; Levels of 'free' heme or hemozoin relative to untreated controls [2]: no significant changes; Undigested hemoglobin levels [2]: modest concentration-dependent increase; Activity against P. berghei liver stage parasites [3]: did not show activity |
| O=[N+]([O-])c1ccc2nc(Nc3ccc(Cl)c(Cl)c3)c(Nc3ccc(Cl)c(Cl)c3)nc2c1 [Compound 22] | elevated IC50 | – | 11.9 | 22 nM | 8.0 | 32 nM | potencies similar to those recorded for the lab strain Dd2 | small but consistent shift in IC50 | 2–3 fold | reduced susceptibility | 3–4 fold | did not demonstrate a strong stage-specificity | rapidly reduced parasitemia | 470 nM | 440 nM | 420 nM | 7400 nM | 260 nM | IC50 (P. falciparum 3D7): 21.9 nM; IC50 (P. falciparum Dd2 [4]): 32.4 nM |
| O=[N+]([O-])c1ccc2nc(Nc3cc(C(F)(F)F)ccc3F)c(Nc3cc(C(F)(F)F)ccc3F)nc2c1 [Compound 33] | not affected | – | 22.2 | 4.5 nM | 14.1 | 7.1 nM | potencies similar to those recorded for the lab strain Dd2 | unexpectedly not | – | – | 3–4 fold | did not demonstrate a strong stage-specificity | rapidly reduced parasitemia | 150 nM | 150 nM | 150 nM | 27500 nM | 100 nM | – |
| O=[N+]([O-])c1ccc2nc(Nc3ccc(C(F)(F)F)cc3)c(Nc3ccc(C(F)(F)F)cc3)nc2c1 [Compound 31] | elevated IC50 | – | 8.2 | 9.7 nM | 5.7 | 14 nM | potencies similar to those recorded for the lab strain Dd2 | small but consistent shift in IC50 | 2–3 fold | reduced susceptibility | 3–4 fold | did not demonstrate a strong stage-specificity | rapidly reduced parasitemia | 340 nM | 310 nM | 280 nM | 8800 nM | 80 nM | – |
| O=C(Nc1ccc(Cl)c(Cl)c1)Nc1ccc(Cl)c(Cl)c1 [MMV665852] | – | most active compounds | – | – | – | – | – | – | – | – | – | – | – | – | – | – | – | – | – |
